Data published in patent publication US20260272915A1, “PHARMACEUTICAL COMPOSITION FOR TREATING, PREVENTING, OR MANAGING BILIRUBIN-INDUCED NEUROLOGICAL DYSFUNCTION, PSYCHIATRIC DISORDERS ASSOCIATED WITH JAUNDICE, OR PSYCHIATRIC DISORDERS CAUSED BY BILIRUBIN UDP-GLUCURONOSYLTRANSFERASE GENE MUTATIONS” (priority 2023, published 2026).

Key:
Assay type in all cases: in vivo, rat
[1] = tested on: jaundice model rats (Gunn rats); experiment: Open field test; settings: for Effect on number of grooming behaviors of Gunn rats (in words) / Effect on number of rearing behaviors of Gunn rats (in words) / Effect on spontaneous activity amount of Gunn rats (in words): compared with normal (Wistar) rats; for Spontaneous Activity Amount, Average / Number of Rearing Behaviors, Average / Number of Grooming Behaviors, Average: Gunn rats (j/j)
Protocol: Eltoprazine (E1357, TCI), which is one of the 5-HT1A/1B receptor agonists, was dissolved in an arbitrary solvent. 0.3 mg/kg of eltoprazine was subcutaneously administered to jaundice model rats (Gunn rats) at 9 to 10 weeks of age. Further, as control groups, only a solvent was subcutaneously administered to Gunn rats and Wistar rats at 9 to 10 weeks of age. Further, as a comparison group, 8OH-DPAT (O415005, FUJIFILM Wako Pure Chemical Corporation), which is one of 5-HT1A receptor agonists, was dissolved in an arbitrary solvent, and 1 mg/kg thereof was subcutaneously administered to Gunn rats. After placing each rat in its home cage for 60 minutes, an open field test was conducted for 60 minutes using the Scanet MV-40 (Melquest Ltd.). The spontaneous activity amount and the number of rearing behaviors were measured for each rat by counting how many times the rat crossed the center evenly spaced. The number of grooming behaviors was counted by visual inspection.
Eltoprazine (E1357, TCI), which is one of the 5-HT1A/1B receptor agonists, was dissolved in an arbitrary solvent. 0.3 mg/kg of eltoprazine was subcutaneously administered to jaundice model rats (Gunn rats) at 9 to 10 weeks of age. Further, as control groups, only a solvent was subcutaneously administered to Gunn rats and Wistar rats at 9 to 10 weeks of age. Further, as a comparison group, CGS12066A (Sigma-Aldrich Co. LLC), which is one of 5-HT1B receptor agonists, was dissolved in an arbitrary solvent, and 1 mg/kg thereof was subcutaneously administered to Gunn rats. After placing each rat in its home cage for 60 minutes, an open field test was conducted for 60 minutes using the Scanet MV-40 (Melquest Ltd.). The spontaneous activity amount and the number of rearing behaviors for each rat were measured by counting how many times the rat crossed the center evenly spaced. The number of grooming behaviors was counted by visual inspection.

[2] = tested on: Gunn rats; experiment: Social interaction test; settings: for Attacking Behavior, Average / Following Behavior, Average / Sniffing Behavior/Grooming Behavior, Average: Gunn rats (j/j), 1 h after administration, 10 min recording; for Sniffing Behavior/Grooming Behavior, Average: duration of sniffing or grooming the partner
Protocol: Eltoprazine (E1357, TCI), which is one of 5-HT1A/1B receptor agonists, was dissolved in a physiological saline solution. Only a solvent, 0.3 mg/kg of eltoprazine, or 1 mg/kg of eltoprazine was administered subcutaneously to Gunn rats at 9 to 10 weeks of age. For control, only a solvent was administered to Wistar rats as normal rats. One hour after the administration, two rats of the same type (same drug, same dose, same genetic type) were placed together in a single cage, and their behaviors were video-recorded from above for 10 minutes. The recorded video was visually analyzed, and the number of behaviors of following the partner, the attacking behavior, and the duration of sniffing or grooming the partner were measured.

[3] = tested on: Gunn rats; experiment: Startle response prepulse inhibition (PPI) test; settings: 0.3 mg/kg subcutaneous, 80 dB prepulse
Protocol: Eltoprazine (E1357, TCI), which is one of 5-HT1A/1B receptor agonists, was dissolved in a physiological saline solution. Only a solvent, 0.3 mg/kg of eltoprazine, or 1 mg/kg of eltoprazine was administered subcutaneously to Gunn rats at 9 to 10 weeks of age. For control, only a solvent was administered to Wistar rats as normal rats. One hour after the administration, a startle response prepulse inhibition (PPI) test was performed. The PPI test was conducted using the SR-LAB-Startle Response System (San Diego Institute, USA). Each rat subjected to the measurement was placed in a measurement chamber and acclimated with a 65 dB background white noise for 5 minutes before the start of stimulation. The startle response to a 120 dB auditory stimulation was measured using a piezoelectric sensor attached to the bottom of the chamber. The test session consisted of a total of 50 randomized trials, including no-stimulus (white noise only), 20 ms of 120 dB pulse stimulation, and stimulation with 20 ms of 70 dB or 80 dB prepulse 100 ms before the 120 dB pulse. The interval between the trials was 20 to 60 seconds (average: 40 seconds). The percentage PPI was calculated using the following formula: 100−[(startle response to prepulse-pulse stimulation trial−no-stimulation trial)/(pulse-alone trial−no-stimulation trial)×100].

[4] = 0.3 mg/kg or 1 mg/kg subcutaneous, compared with normal rats

For c1cc2c(c(N3CCNCC3)c1)OCCO2 [eltoprazine, 5-(piperazin-1-yl)-2,3-dihydro-1,4-benzodioxine], the “Effect on number of grooming behaviors of Gunn rats (in words)” value ([1]; 0.3 mg/kg subcutaneous) was “levels comparable to those of normal rats”, the “Effect on number of rearing behaviors of Gunn rats (in words)” value ([1]; 0.3 mg/kg subcutaneous) was “levels comparable to those of normal rats” and the “Effect on spontaneous activity amount of Gunn rats (in words)” value (from here on “Effect on spontaneous activity amount”) ([1]; 0.3 mg/kg subcutaneous) was “levels comparable to those of normal rats”. The “Spontaneous Activity Amount, Average” value ([1]; Table 2, 0.3 mg/kg subcutaneous, 60 min home cage then 60 min open field) was 4640 count, the “Number of Rearing Behaviors, Average” value ([1]; Table 3, 0.3 mg/kg subcutaneous, 60 min open field) was 61.5 times and the “Number of Grooming Behaviors, Average” value ([1]; Table 4, 0.3 mg/kg subcutaneous, 60 min open field, visual inspection) was 8.5 count. The “Spontaneous Activity Amount, Average” value ([1]; Table 5, 0.3 mg/kg subcutaneous, 60 min open field) was 4640 count, the “Number of Rearing Behaviors, Average” value ([1]; Table 6, 0.3 mg/kg subcutaneous, 60 min open field) was 61.5 count and the “Number of Grooming Behaviors, Average” value ([1]; Table 7, 0.3 mg/kg subcutaneous, 60 min open field) was 8.5 count. For the same molecule, the “Effect on attacking behavior of Gunn rats (in words)” value [2, 4] was “levels comparable to those of normal rats”, the “Effect on duration of sniffing or grooming the partner in Gunn rats (in words)” value [2, 4] was “normal level” and the “Effect on following behavior of Gunn rats (in words)” value [2, 4] was “levels comparable to those of normal rats”. The “Attacking Behavior, Average” value ([2]; 0.3 mg/kg subcutaneous) was 2 count, the “Following Behavior, Average” value ([2]; 0.3 mg/kg subcutaneous) was 2.16 count and the “Attacking Behavior, Average” value ([2]; 1 mg/kg subcutaneous) was 0.16 count. For the same molecule, the “Following Behavior, Average” value ([2]; 1 mg/kg subcutaneous) was 3.83 count, the “Sniffing Behavior/Grooming Behavior, Average” value ([2]; 0.3 mg/kg subcutaneous) was 52 count and the “Sniffing Behavior/Grooming Behavior, Average” value ([2]; 1 mg/kg subcutaneous) was 41.5 count. The “Effect on percentage PPI of Gunn rats (in words)” value [3] was “tendency to improve” and the “Percentage PPI, Average” value ([3]; 120 dB pulse, Gunn rats (j/j), 1 h after administration) was 63.6%.

With CN1CCN(c2nc3cc(C(F)(F)F)ccc3n3cccc23)CC1 [CGS12066A] the “Effect on number of grooming behaviors of Gunn rats (in words)” value ([1]; 1 mg/kg subcutaneous) was “did not improve”, the “Effect on number of rearing behaviors of Gunn rats (in words)” value ([1]; 1 mg/kg subcutaneous) was “levels comparable to those of normal rats” and the “Effect on spontaneous activity amount” value ([1]; 1 mg/kg subcutaneous) was “levels comparable to those of normal rats”. For the same molecule, the “Spontaneous Activity Amount, Average” value ([1]; Table 5, 1 mg/kg subcutaneous, 60 min open field) was 4030 count, the “Number of Rearing Behaviors, Average” value ([1]; Table 6, 1 mg/kg subcutaneous, 60 min open field) was 47 count and the “Number of Grooming Behaviors, Average” value ([1]; Table 7, 1 mg/kg subcutaneous, 60 min open field) was 19.6 count.

With CCCN(CCC)C1CCc2cccc(O)c2C1 (centres unmarked) [8OH-DPAT] the “Effect on number of grooming behaviors of Gunn rats (in words)” value ([1]; 1 mg/kg subcutaneous) was “levels comparable to those of normal rats”, the “Effect on number of rearing behaviors of Gunn rats (in words)” value ([1]; 1 mg/kg subcutaneous) was “abnormal number of rearing behaviors” and the “Effect on spontaneous activity amount” value ([1]; 1 mg/kg subcutaneous) was “levels comparable to those of normal rats”. For the same molecule, the “Spontaneous Activity Amount, Average” value ([1]; Table 2, 1 mg/kg subcutaneous, 60 min home cage then 60 min open field) was 2681 count, the “Number of Rearing Behaviors, Average” value ([1]; Table 3, 1 mg/kg subcutaneous, 60 min open field) was 0.3 times and the “Number of Grooming Behaviors, Average” value ([1]; Table 4, 1 mg/kg subcutaneous, 60 min open field, visual inspection) was 5.5 count.
